Measured values: patent publication US20220151985A1, “IMMUNOSTIMULATOR AND FOOD OR BEVERAGE FOR IMMUNOSTIMULATION” (AMINO UP CO., LTD., priority 2019, published 2022)

How the values were obtained:
TNF-α production of PEC = assay: Amount of induced TNF-α production of PEC from treated mice when treated with LPS; type: in vivo, Slc: ddY mice; conditions: PEC collected 22 hours after intraperitoneal administration, LPS 100 ng/mL for 3 hours
Experimental: The test sample AU-1833C was dissolved in DMSO so as to be 50 mg/mL and then diluted five-fold with saline (product name: Otsuka normal saline, manufactured by Otsuka Pharmaceutical Co., Ltd.) to prepare a test sample solution of 10 mg/mL (including 20% DMSO).
The animals used were Slc: ddY mice (female, 6-week old) and grouped as follows.
The mice purchased at the age of 5 weeks were acclimated for 5 days under a condition of free access to water and feed (regular diet (product name: CE-2, manufactured by CLEA Japan, Inc.)). Body weights of the mice after acclimation at the age of 6 weeks were measured and the mice were grouped based on the measured values so that there was no difference in the body weight among the groups. 200 μL of the test sample solutions or 20% DMSO saline as the non-treated group was respectively administered to the mice by intraperitoneal injection. […] Using a portion of the collected saline and a Turk's solution (product name: Turk's solution, manufactured by Wako Pure Chemical Industries, Ltd.), a concentration of PEC (cells/mL), intraperitoneally exudated nucleated cells such as white blood cells, was measured. The measured PEC concentration was multiplied by the amount of saline intraperitoneally injected (5 mL) to calculate a PEC count per mouse (cells/mouse). […]

[1] = system: mouse-derived macrophage-like cell line (RAW264); assay: TNF-α production-inducing activity in cells; type: cell-based; conditions: 24 hours
Experimental: A TNF-α production-inducing activity in a mouse-derived macrophage-like cell line (RAW264, provided: RIKEN BioResource Research Center) was investigated. Using, as test samples, AU-1833C (synthesized in Example 1), lentinan (product name: Lentinan, manufactured by FUJIFILM Wako Pure Chemical Corporation) and fucoidan (product name: Fucoidan Fucus vesiculosus-derived, manufactured by Sigma-Aldrich Co. LLC), test sample solutions were prepared so that the final concentrations of the test samples were 50, 100, and 200 μg/mL. First, all test samples were dissolved in dimethylsulfoxide (DMSO) so as to have a 1,000-fold concentration of the final concentration, and then 100-fold dilution was carried out with deionized water thereby to prepare test sample solutions having a 10-fold concentration (including 1% DMSO) of the final concentrations. […] A ratio of a TNF-α concentration in each test sample group relative to a TNF-α concentration in the non-treated group was calculated from the measured TNF-α concentrations and defined as the TNF-α production-inducing activity.

[2] = system: peritoneal exudate cell (PEC) count; assay: PEC count in mice after intraperitoneal administration; type: in vivo, Slc: ddY mice; conditions: intraperitoneal injection of 200 μL of 10 mg/mL, 22 hours after administration, compared with control non-treated mice (FIG. 4(a))
Experimental: The test sample AU-1833C was dissolved in DMSO so as to be 50 mg/mL and then diluted five-fold with saline (product name: Otsuka normal saline, manufactured by Otsuka Pharmaceutical Co., Ltd.) to prepare a test sample solution of 10 mg/mL (including 20% DMSO). The animals used were Slc: ddY mice (female, 6-week old) and grouped as follows. The mice purchased at the age of 5 weeks were acclimated for 5 days under a condition of free access to water and feed (regular diet (product name: CE-2, manufactured by CLEA Japan, Inc.)). […] The mice after a lapse of 22 hours from administration were sacrificed under isoflurane anesthesia, 5 mL of saline was intraperitoneally injected, the abdominal area was rubbed about 10 times, and then intraperitoneal cells were collected by collecting the saline from the abdominal cavity. Using a portion of the collected saline and a Turk's solution (product name: Turk's solution, manufactured by Wako Pure Chemical Industries, Ltd.), a concentration of PEC (cells/mL), intraperitoneally exudated nucleated cells such as white blood cells, was measured. The measured PEC concentration was multiplied by the amount of saline intraperitoneally injected (5 mL) to calculate a PEC count per mouse (cells/mouse).

## O=C1OCCCCCCOC(=O)c2ccccc2C(=O)OCCCCCCOC(=O)c2ccccc21 [AU-1833C, 7,8,9,10,11,12,19,20,21,22,23,24-dodecahydro-dibenzo[1,6,13,18]-tetraoxacyclooctadecine-2,5,14,17-tetrone]
TNF-α production of PEC; compared with control non-treated mice (FIG. 4(b))
  TNF-α production amount per cell in PEC: significantly higher TNF-α production amount per cell in PEC
TNF-α production of PEC; compared with control non-treated mice (FIG. 4(c))
  PEC-derived TNF-α production amount per mouse: significantly higher PEC-derived TNF-α production amount per mouse
[1]; RAW264 cells, 50, 100 and 200 μg/mL, ELISA, compared with control non-treated group (FIG. 3)
  TNF-α production-inducing activity (ratio of TNF-α concentration relative to non-treated group): significantly higher than that of the control non-treated group
[1]; RAW264 cells, each of 50, 100 and 200 μg/mL, ELISA (FIG. 3)
  TNF-α production-inducing activity compared with lentinan and fucoidan at the same concentration: significantly higher than those of lentinan and fucoidan at the same concentration
[2]
  PEC counts: significantly higher PEC counts
